In patent US12486254B2, “Uracil derivatives for stimulating read-through of premature termination codons” (Southern Research Institute, priority 2022, dated 2025):
pEC50: −log10 of the molar value.

What was measured:
W134X-CF#14 FRT = experiment: Read-through of a premature termination codon, W134X-CF#14 FRT data, with G418; assay type: cell-based; settings: in presence of G418
Procedure: (§1) The compounds shown in Table 1 were evaluated for their ability to stimulate read-through of a premature termination codon, and their respective activities are shown in Tables 2 and 3 below.

G542X#10-HBE5x5 = experiment: Read-through of a premature termination codon, G542X#10-HBE5x5 (Table 3); assay type: cell-based; settings: with G418
Procedure: as §1

SMILES	pEC50 (W134X-CF#14 FRT)	pEC50 (G542X#10-HBE5x5)
CCn1c(=O)c(C(=O)CN2CCc3cc(F)ccc3C2)c(N)n(Cc2ccccc2)c1=O [1.7]	4.49	≤ 4.00
CCn1c(=O)c(C(=O)CNCC2CCCCO2)c(N)n(Cc2ccccc2)c1=O (centres unmarked) [1.8]	3.78	≤ 4.00
CCn1c(=O)c(C(=O)CN2CCCC2C(=O)OC)c(N)n(Cc2ccccc2)c1=O (centres unmarked) [1.12]	4.34	≤ 4.00
CCn1c(=O)c(C(=O)CN2CCC[C@@H]2C(=O)OC)c(N)n(Cc2ccccc2)c1=O [1.24]	4.64	≤ 4.00
CCn1c(=O)c(C(=O)CNc2nc3ccccc3[nH]2)c(N)n(Cc2ccccc2)c1=O [1.29]	4.93	4.21
CCn1c(=O)c(C(=O)CN(Cc2ccccc2)C2CCCCC2)c(N)n(Cc2ccccc2)c1=O [1.30]	4.17	4.04
CCN(CC(N)=O)CC(=O)c1c(N)n(Cc2ccccc2)c(=O)n(CC)c1=O [1.36]	4.03	≤ 4.00
NC(=O)[C@H]1CCCCN1CC(=O)c1c(N)n(Cc2ccc(F)cc2)c(=O)n(Cc2ccc(F)cc2)c1=O [1.47, (2R)-1-[2-[4-amino-1,3-bis[(4-fluorophenyl)methyl]-2,6-dioxo-pyrimidin-5-yl]-2-oxo-ethyl]piperidine-2-carboxamide]	5.50	4.30
CCn1c(=O)c(C(=O)CN2CCCCC2c2nc(C)no2)c(N)n(Cc2ccccc2)c1=O (centres unmarked) [1.86]	4.25	≤ 4.00
NC(=O)C1CCCCN1CC(=O)c1c(N)n(Cc2ccc(Cl)cc2)c(=O)n(Cc2ccc(Cl)cc2)c1=O (centres unmarked) [1.107]	5.34	5.15
CCn1c(=O)c(C(=O)CN2CCCCC2C(=O)N(C)C)c(N)n(Cc2cccs2)c1=O (centres unmarked) [1.113]	5.24	≤ 4.00
Nc1c(C(=O)CN2CCCC[C@@H]2C(=O)N2CCCCC2)c(=O)n(Cc2ccc(F)cc2)c(=O)n1Cc1ccc(F)cc1 [1.152]	5.50	4.60
CCn1c(=O)c(C(=O)CN2CCCC[C@@H]2C(=O)NCC2CC2)c(N)n(Cc2ccccc2)c1=O [1.158]	5.59	≤ 4.00
CCn1c(=O)c(C(=O)CN2CCCCC2=O)c(N)n(Cc2ccc(F)cc2)c1=O [1.165]	≤ 4.00	≤ 4.00
CCn1c(=O)c(C(=O)CN2CCCCC2C(C)C)c(N)n(Cc2ccc(F)cc2)c1=O (centres unmarked) [1.175]	5.07	≤ 4.00
CCn1c(=O)c(C(=O)CN(CC(=O)N2CCCCC2)C(C)C)c(N)n(Cc2ccc(F)cc2)c1=O [1.176]	5.79	≤ 4.00
CCn1c(=O)c(C(=O)CN2CCCC[C@@H]2c2nccn2C)c(N)n(Cc2ccc(F)cc2)c1=O [1.190]	5.49	≤ 4.00
CCn1c(=O)c(C(=O)CN(CC(=O)N2CCC(F)(F)CC2)C(C)C)c(N)n(Cc2ccc(F)cc2)c1=O [1.203]	5.39	≤ 4.00
CCn1c(=O)c(C(=O)CNc2ccc(C(N)=O)cc2)c(N)n(Cc2ccc(F)cc2)c1=O [1.206]	4.89	4.74
CCn1c(=O)c(C(=O)CNc2ccccc2C(N)=O)c(N)n(Cc2ccc(F)cc2)c1=O [1.207]	4.45	4.58

Next, values leading:

pEC50 (W134X-CF#14 FRT)	pEC50 (G542X#10-HBE5x5)	SMILES
4.64	≤ 4.00	CCn1c(=O)c(C(=O)CN2CCC(c3ccccc3)C2)c(N)n(Cc2ccccc2)c1=O (centres unmarked) [1.3]
4.00	≤ 4.00	CCn1c(=O)c(C(=O)CN2CCN(c3ncccn3)CC2)c(N)n(Cc2ccccc2)c1=O [1.4]
4.91	≤ 4.00	CCn1c(=O)c(C(=O)CNCc2ccccc2)c(N)n(Cc2ccccc2)c1=O [1.14]
4.08	≤ 4.00	CCOC(=O)C1CCCCN1CC(=O)c1c(N)n(Cc2ccccc2)c(=O)n(CC)c1=O (centres unmarked) [1.22]
≤ 4.00	≤ 4.00	CCn1c(=O)c(C(=O)CN2CCOCC2C(N)=O)c(N)n(Cc2ccccc2)c1=O (centres unmarked) [1.53]
≤ 4.00	≤ 4.00	CCn1c(=O)c(C(=O)CN(Cc2ncco2)C(C)C)c(N)n(Cc2ccccc2)c1=O [1.56]
4.81	≤ 4.00	CCn1c(=O)c(C(=O)CN(Cc2ncc[nH]2)C(C)C)c(N)n(Cc2ccccc2)c1=O [1.57]
4.23	≤ 4.00	CCn1c(=O)c(C(=O)CN2CCCCC2C(=O)N2CCN(C)CC2)c(N)n(Cc2ccccc2)c1=O (centres unmarked) [1.96]
5.46	≤ 4.00	CCn1c(=O)c(C(=O)CN2CCCCC2C(N)=O)c(N)n(Cc2cccs2)c1=O (centres unmarked) [1.112]
5.33	≤ 4.00	CCn1c(=O)c(C(=O)CN2CCC(C)CC2C(N)=O)c(N)n(Cc2ccc(F)cc2)c1=O (centres unmarked) [1.131]
4.10	≤ 4.00	CCn1c(=O)c(C(=O)CNC(C)C)c(N)n(Cc2ccc(F)cc2)c1=O [1.138, 6-amino-3-ethyl-1-[(4-fluorophenyl)methyl]-5-[2-(isopropylamino)acetyl]pyrimidine-2,4-dione]
5.20	≤ 4.00	NC(=O)C1CCCCN1CC(=O)c1c(N)n(Cc2ccc(F)cc2)c(=O)n(CC2CCC2)c1=O (centres unmarked) [1.140]
5.49	4.38	CCn1c(=O)c(C(=O)CN(CC(N)=O)C(C)C)c(N)n(Cc2ccc(F)cc2F)c1=O [1.149]
4.19	≤ 4.00	CCn1c(=O)c(C(=O)CN2CCCCC2CN(C)C)c(N)n(Cc2ccc(F)cc2)c1=O (centres unmarked) [1.177]
4.59	≤ 4.00	CCn1c(=O)c(C(=O)CNc2cc(OC)c(OC)c(OC)c2)c(N)n(Cc2ccc(F)cc2)c1=O [1.183]
4.53	≤ 4.00	CCn1c(=O)c(C(=O)CN2CCCC2)c(N)n(Cc2ccc(F)cc2)c1=O [1.194]
5.81	≤ 4.00	CCn1c(=O)c(C(=O)CN2CCCC[C@@H]2c2ncc[nH]2)c(N)n(Cc2ccc(F)cc2)c1=O [1.196]
